In US5985834A, “Nova- and decapeptides in the preparation of a drug for the treatment of aids” (ASTA Medica AG, priority 1993, dated 1999):
pEC50: −log10 of the molar value.

Test system: HIV virus
Assay: Screening method for anti-HIV activity (NCI AIDS screening trial, XTT formazan, protection of virus-infected T4 lymphocytes)
Type: cell-based
Settings: Human immunodeficiency virus 1, CCRF-CEM, infected culture treated, CEM cells, 6-7 days
Description: Description of the Screening Method for Anti-HIV Activity
The process is suitable for locating active substances which are effective in all phases of the virus proliferation cycle. The test principle is based on the destruction of the T4 lymphocytes by the HIV virus.
Small amounts of HIV virus are added to the cell cultures. At least two complete viral reproduction cycles are needed to destroy the T4 lymphocytes and to be able to evaluate the results.
Active substances that react with virions (virus-like particles), cells or with products of the viral genes in order to interact with viral activities and thus block proliferation of the viruses will protect the cells from destruction and lysis.
The test system is automated to permit examination of a large number of cells infected with viruses. Compounds which degenerate, denaturise or that are rapidly metabolised cannot, however, be reliably discovered using the test procedure.
AZT (azidothymidine) and DDC serve as positive controls for the test.
1. T4 lymphocytes (CEM cell line) are mixed with virus in the ratio of virus:cell of ca. 1:0.05 in microtiter plates.
2. […]
5. The individual cell cultures are analysed spectrophotometrically and examined microscopically to detect surviving cells in order to confirm the protective effect. […]
7. The activity of the tested compound is determined. […]

Cc1cn([C@H]2C[C@H](N=[N+]=[N-])[C@@H](CO)O2)c(=O)[nH]c1=O [AZT, 3'-azido-3'-desoxythymidine]
pEC50: 8.51
